Measurements from patent US20230339886A1 (University of Florida Research Foundation, Incorporated, priority 2020, published 2023).

Target: T1, REV-ERBα LBD (human; residues 281-614 Δ324-422) (Homo sapiens, UniProt P20393, DEL324-422)
T1 construct: 6×Histag-REV-ERBα LBD (human; residues 281-614 Δ324-422); made in house; host or cells: Escherichia coli
Experiment: TR-FRET corepressor interaction assay (REV-ERBα LBD, FITC-SMRT peptide)
Assay type: biochemical
Details: FITC-SMRT peptide, read-out: REVERBα agonism (EC50 class, FRET assay)
How it was run: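 Compound serial dilutions (in DMSO, triplicate) incubated 2 h at 4 °C; Tb donor excited at 340 nm, emission read at 495 nm and FITC acceptor at 520 nm. TR-FRET ratio (520/495 nm) plotted against ligand concentration and fitted to a sigmoidal dose-response curve.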

T1 sequence (P20393 with tags, fused parts or gaps DEL324-422): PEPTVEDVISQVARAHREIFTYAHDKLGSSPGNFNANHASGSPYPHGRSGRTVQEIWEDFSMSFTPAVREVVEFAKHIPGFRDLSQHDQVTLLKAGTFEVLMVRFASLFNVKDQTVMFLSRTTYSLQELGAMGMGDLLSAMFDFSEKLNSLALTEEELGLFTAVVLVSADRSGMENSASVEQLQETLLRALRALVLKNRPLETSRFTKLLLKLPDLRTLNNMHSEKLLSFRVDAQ
T1 sequence (Q9Y618 2335-2356 partner limits assumed): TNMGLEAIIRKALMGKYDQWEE

Structure (SMILES) | EC50 [nM]
CC(C)(C)Cn1cc([C@H](NS(=O)(=O)C2CC2)C(F)(F)F)c2ccc(-c3cccc(C#N)c3F)cc21 [Example 473, (S)—N-(1-(6-(3-cyano-2-fluorophenyl)-1-neopentyl-1H-indol-3-yl)-2,2,2-trifluoroethyl)cyclopropanesulfonamide] | 500 to 3000
CC(C)(O)Cn1cc([C@H](NS(=O)(=O)C2CC2)C(F)(F)F)c2cc(F)c(-c3ccccc3C(F)(F)F)cc21 [Example 474, N-[(1S)-2,2,2-trifluoro-1-[5-fluoro-1-(2-hydroxy-2-methyl-propyl)-6-[2-(trifluoromethyl)phenyl]indol-3-yl]ethyl]cyclopropanesulfonamide] | 500 to 3000
N#CC1(Cn2cc([C@H](NS(=O)(=O)C3CC3)C(F)(F)F)c3cc(F)c(-c4ccccc4C(F)(F)F)cc32)CC1 [Example 476, N-[(1S)-1-[1-[(1-cyanocyclopropyl)methyl]-5-fluoro-6-[2-(trifluoromethyl)phenyl]indol-3-yl]-2,2,2-trifluoro-ethyl]cyclopropanesulfonamide] | 500 to 3000
CC(C)(C)Cn1cc([C@H](NS(=O)(=O)C2CC2)C(F)(F)F)c2cc(F)c(-c3cccc4c3CCCC4)cc21 [Example 477, N-[(1S)-1-[1-(2,2-dimethylpropyl)-5-fluoro-6-tetralin-5-yl-indol-3-yl]-2,2,2-trifluoro-ethyl]cyclopropanesulfonamide] | 500 to 3000
CC(C)(O)Cn1cc([C@H](NS(=O)(=O)C2CCC2)C(F)(F)F)c2cc(F)c(-c3ccccc3C(F)(F)F)cc21 [Example 478, N-[(1S)-2,2,2-trifluoro-1-[5-fluoro-1-(2-hydroxy-2-methyl-propyl)-6-[2-(trifluoromethyl)phenyl]indol-3-yl]ethyl]cyclobutanesulfonamide] | 500 to 3000
CC(C)(C)C(=O)n1cc([C@H](NS(=O)(=O)C2CC2)C(F)(F)F)c2ccc(-c3ccccc3C(F)(F)F)cc21 [Example 480, (S)—N-(2,2,2-trifluoro-1-(1-pivaloyl-6-(2-(trifluoromethyl)phenyl)-1H-indol-3-yl)ethyl)cyclopropanesulfonamide] | 500 to 3000
CC(C)(C)Cn1cc(CCNS(=O)(=O)C2CC2)c2ccc(-c3ccc(C(F)(F)F)cc3C(F)(F)F)cc21 [Example 481, N-(2-(6-(2,4-bis(trifluoromethyl)phenyl)-1-neopentyl-1H-indol-3-yl)ethyl)cyclopropanesulfonamide] | 500 to 3000
CC(C)(C)Cn1cc(CCNS(=O)(=O)C2CC2)c2ccc(-c3cccc(C(F)(F)F)c3Cl)cc21 [Example 485, N-(2-(6-(2-chloro-3-(trifluoromethyl)phenyl)-1-neopentyl-1H-indol-3-yl)ethyl)cyclopropanesulfonamide] | 500 to 3000
CC(C)(C)Cn1cc(CCNS(=O)(=O)C2CC2)c2ccc(-c3cccc(C#N)c3Cl)cc21 [Example 486, N-(2-(6-(2-chloro-3-cyanophenyl)-1-neopentyl-1H-indol-3-yl)ethyl)cyclopropanesulfonamide] | 500 to 3000
CC(C)(C)Cc1cn(CCNS(=O)(=O)C2CC2)c2ccc(-c3ccc(C(F)(F)F)cc3C#N)cc12 [Example 487, N-(2-(5-(2-cyano-4-(trifluoromethyl)phenyl)-3-neopentyl-1H-indol-1-yl)ethyl)cyclopropanesulfonamide] | 500 to 3000
CC(C)(CO)Cn1cc([C@H](NS(=O)(=O)C2CC2)C(F)(F)F)c2cc(F)c(-c3ccccc3C(F)(F)F)cc21 [Example 490, N-[(1S)-2,2,2-trifluoro-1-[5-fluoro-1-(3-hydroxy-2,2-dimethyl-propyl)-6-[2-(trifluoromethyl)phenyl]indol-3-yl]ethyl]cyclopropanesulfonamide] | 500 to 3000
CC(C)(C)Cn1cc([C@H](NS(=O)(=O)C2CCC2)C(F)(F)F)c2ccc(-c3ccc(F)cc3C(F)(F)F)cc21 [Example 497, (S)—N-(2,2,2-trifluoro-1-(6-(4-fluoro-2-(trifluoromethyl)phenyl)-1-neopentyl-1H-indol-3-yl)ethyl)cyclobutanesulfonamide] | < 500
CC(C)Cn1cc(C(CS(=O)(=O)C2CC2)C(F)(F)F)c2ccc(-c3ccccc3C(F)(F)F)cc21 (stereo not drawn) [Example 498, 3-(3-(cyclopropylsulfonyl)-1,1,1-trifluoropropan-2-yl)-1-isobutyl-6-(2-(trifluoromethyl)phenyl)-1H-indole] | 500 to 3000
CC(C)Cn1cc([C@H](NS(=O)(=O)C2CCC2)C(F)(F)F)c2ccc(-c3ccccc3C(F)(F)F)cc21 [Example 499, (S)—N-(2,2,2-trifluoro-1-(1-isobutyl-6-(2-(trifluoromethyl)phenyl)-1H-indol-3-yl)ethyl)cyclobutanesulfonamide] | < 500
Cc1ccc2c([C@H](NS(=O)(=O)C3CCC3)C(F)(F)F)cn(CC(C)(C)C)c2c1 [Example 500, (S)—N-(2,2,2-trifluoro-1-(6-methyl-1-neopentyl-1H-indol-3-yl)ethyl)cyclobutanesulfonamide] | < 500
CC(C)(C)Cn1cc([C@H](NS(=O)(=O)C2CCC2)C(F)(F)F)c2ccc(C3CC3)cc21 [Example 501, (S)—N-(1-(6-cyclopropyl-1-neopentyl-1H-indol-3-yl)-2,2,2-trifluoroethyl)cyclobutanesulfonamide] | < 500
CCS(=O)(=O)NCCn1cc(CC(C)(C)C)c2cc(-c3ccc(C(F)(F)F)cc3C(F)(F)F)ccc21 [Example 502, N-(2-(5-(2,4-bis(trifluoromethyl)phenyl)-3-neopentyl-1H-indol-1-yl)ethyl)ethanesulfonamide] | < 500
CC(C)(C)Cc1cn(CCNS(=O)(=O)C2CCCC2)c2ccc(-c3ccc(C(F)(F)F)cc3C(F)(F)F)cc12 [Example 503, N-(2-(5-(2,4-bis(trifluoromethyl)phenyl)-3-neopentyl-1H-indol-1-yl)ethyl)cyclopentanesulfonamide] | < 500
CC(C)C(=O)n1cc([C@H](NS(=O)(=O)C2CCC2)C(F)(F)F)c2ccc(-c3ccccc3C(F)(F)F)cc21 [Example 504, (S)—N-(2,2,2-trifluoro-1-(1-isobutyryl-6-(2-(trifluoromethyl)phenyl)-1H-indol-3-yl)ethyl)cyclobutanesulfonamide] | < 500

Other lines, results leading:

EC50 [nM] | Structure (SMILES)
< 500 | COC(C)(C)Cn1cc([C@H](NS(=O)(=O)C2CC2)C(F)(F)F)c2cc(F)c(-c3ccccc3C(F)(F)F)cc21 [Example 475, N-[(1S)-2,2,2-trifluoro-1-[5-fluoro-1-(2-methoxy-2-methyl-propyl)-6-[2-(trifluoromethyl)phenyl]indol-3-yl]ethyl]cyclopropanesulfonamide]
< 500 | CC(C)(C)Cn1cc([C@H](NS(=O)(=O)C2CCC2)C(F)(F)F)c2cc(F)c(-c3cccc4c3CCCC4)cc21 [Example 479, N-[(1S)-1-[1-(2,2-dimethylpropyl)-5-fluoro-6-tetralin-5-yl-indol-3-yl]-2,2,2-trifluoro-ethyl]cyclobutanesulfonamide]
< 500 | CC(C)(C)Cn1cc(CCNS(=O)(=O)C2CC2)c2ccc(-c3ccc(Cl)cc3C#N)cc21 [Example 482, N-(2-(6-(4-chloro-2-cyanophenyl)-1-neopentyl-1H-indol-3-yl)ethyl)cyclopropanesulfonamide]
< 500 | CC(C)(C)Cn1cc(CCNS(=O)(=O)C2CC2)c2ccc(-c3cc(C(F)(F)F)ccc3C(F)(F)F)cc21 [Example 483, N-(2-(6-(2,5-bis(trifluoromethyl)phenyl)-1-neopentyl-1H-indol-3-yl)ethyl)cyclopropanesulfonamide]
< 500 | CC(C)(C)Cn1cc(CCNS(=O)(=O)C2CC2)c2ccc(-c3cc(C(F)(F)F)ccc3Cl)cc21 [Example 484, N-(2-(6-(2-chloro-5-(trifluoromethyl)phenyl)-1-neopentyl-1H-indol-3-yl)ethyl)cyclopropanesulfonamide]
< 500 | CC1(Cn2cc([C@H](NS(=O)(=O)C3CC3)C(F)(F)F)c3cc(F)c(-c4ccccc4C(F)(F)F)cc32)COC1 [Example 489, N-[(1S)-2,2,2-trifluoro-1-[5-fluoro-1-[(3-methyloxetan-3-yl)methyl]-6-[2-(trifluoromethyl)phenyl]indol-3-yl]ethyl]cyclopropanesulfonamide]
< 500 | CC(C)(C)Cn1cc([C@H](NS(=O)(=O)C2CC2)C(F)(F)F)c2ccc(-c3ccccc3C(F)(F)F)nc21 [Example 491, N-[(1S)-1-[1-(2,2-dimethylpropyl)-6-[2-(trifluoromethyl)phenyl]pyrrolo[2,3-b]pyridin-3-yl]-2,2,2-trifluoro-ethyl]cyclopropanesulfonamide]
< 500 | CC(C)(C)Cn1cc([C@H](NS(=O)(=O)C2CCC2)C(F)(F)F)c2ccc(-c3ccccc3C(F)(F)F)nc21 [Example 492, N-[(1S)-1-[1-(2,2-dimethylpropyl)-6-[2-(trifluoromethyl)phenyl]pyrrolo[2,3-b]pyridin-3-yl]-2,2,2-trifluoro-ethyl]cyclobutanesulfonamide]
< 500 | CC(C)(C)Cn1cc([C@H](NS(=O)(=O)C2CCC2)C(F)(F)F)c2ccc(-c3ccccc3C(F)(F)F)cc21 [Example 494, (S)—N-(2,2,2-trifluoro-1-(1-neopentyl-6-(2-(trifluoromethyl)phenyl)-1H-indol-3-yl)ethyl)cyclobutanesulfonamide]
< 500 | CC(C)(C)Cn1cc([C@H](NS(=O)(=O)C2CCC2)C(F)(F)F)c2ccc(-c3ccccc3C#N)cc21 [Example 495, (S)—N-(1-(6-(2-cyanophenyl)-1-neopentyl-1H-indol-3-yl)-2,2,2-trifluoroethyl)cyclobutanesulfonamide]
< 500 | CC(C)(C)Cn1cc([C@H](NS(=O)(=O)C2CCC2)C(F)(F)F)c2ccc(-c3c(F)cccc3C(F)(F)F)cc21 [Example 496, (S)—N-(2,2,2-trifluoro-1-(6-(2-fluoro-6-(trifluoromethyl)phenyl)-1-neopentyl-1H-indol-3-yl)ethyl)cyclobutanesulfonamide]
